Holding throughout (assay type): in vivo
In assay [1] the test system is Velvetleaf. Description: Pre-emergence herbicide test. Conditions: Abutilon theophrasti, read-out: % plant inhibition (Vele); for inhibition at 1120 g/ha: 1.12 kg/ha. The procedure, abridged:
(§1)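 Sow seeds on compacted topsoil; apply compound in acetone/water to seed bed; cover with untreated topsoil; grow in greenhouse with bottom watering; score % inhibition at 10-14 days.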

The test system of assay [2] is Downy Brome. Description: Pre-emergence herbicide test. The note with it: Bromus tectorum, read-out: % plant inhibition (Dobr); for inhibition at 1120 g/ha: 1.12 kg/ha. The procedure, abridged:
as §1

In assay [3] the test system is Barnyardgrass. Description: Pre-emergence herbicide test. Conditions: Echinochloa crus-galli, read-out: % plant inhibition (Bygr); for inhibition at 1120 g/ha: 1.12 kg/ha. The procedure, abridged:
as §1

Assay [4] concerns Wild buckwheat. Description: Pre-emergence herbicide test. The note with it: Fallopia convolvulus, read-out: % plant inhibition (Wibw); for inhibition at 1120 g/ha: 1.12 kg/ha. The procedure, abridged:
as §1

Assay [5] concerns Seedling johnsongrass. Kind of assay: Pre-emergence herbicide test. Conditions: Sorghum halepense, read-out: % plant inhibition (Sejg); for inhibition at 1120 g/ha: 1.12 kg/ha. In short, it runs like this: as §1
The test system of assay [6] is Annual bluegrass. Kind of assay: Pre-emergence herbicide test. The note with it: read-out: % plant inhibition (Anbg); for inhibition at 1120 g/ha: 1.12 kg/ha. In short, it runs like this:
as §1

Assay [7] deals with Cocklebur. Description: Pre-emergence herbicide test. Conditions: Xanthium strumarium, read-out: % plant inhibition (Cobu); for inhibition at 1120 g/ha: 1.12 kg/ha. The procedure, abridged:
as §1

Assay [8] deals with Morningglory. Kind of assay: Pre-emergence herbicide test. The note with it: Ipomoea, read-out: % plant inhibition (Mogl); for inhibition at 1120 g/ha: 1.12 kg/ha. The procedure, abridged: as §1
Assay [9] relates to Indian Mustard. Kind of assay: Pre-emergence herbicide test. Conditions: Brassica juncea, read-out: % plant inhibition (Inmu); for inhibition at 1120 g/ha: 1.12 kg/ha. The procedure, abridged:
as §1

For assay [10], the system named is Yellow nutsedge. Description: Pre-emergence herbicide test. Conditions: Cyperus, read-out: % plant inhibition (Yens); for inhibition at 1120 g/ha: 1.12 kg/ha. The procedure, abridged:
as §1

Assay [11] has as its system Velvetleaf. Kind of assay: Post-emergence herbicide test. The note with it: Abutilon theophrasti, read-out: % plant inhibition (Vele); for inhibition at 1120 g/ha: 1.12 kg/ha. In short, it runs like this: (§2)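 Rating of injury as % inhibition against control took place at ~11 days (10–14), and sometimes at ~25 days (24–28), following atomizer application (170.3 kPa, 1870 L/Ha, ~0.4% v/v emulsifier) to greenhouse plants aged 2–3 weeks.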

In assay [12] the test system is Downy Brome. Kind of assay: Post-emergence herbicide test. Conditions: Bromus tectorum, read-out: % plant inhibition (Dobr); for inhibition at 1120 g/ha: 1.12 kg/ha. In short, it runs like this: as §2
In assay [13] the test system is Barnyardgrass. Description: Post-emergence herbicide test. Conditions: Echinochloa crus-galli, read-out: % plant inhibition (Bygr); for inhibition at 1120 g/ha: 1.12 kg/ha. The procedure, abridged: as §2
Assay [14] concerns Wild buckwheat. Kind of assay: Post-emergence herbicide test. The note with it: Fallopia convolvulus, read-out: % plant inhibition (Wibw); for inhibition at 1120 g/ha: 1.12 kg/ha. In short, it runs like this:
as §2

Assay [15] has as its system Seedling johnsongrass. Description: Post-emergence herbicide test. The note with it: Sorghum halepense, read-out: % plant inhibition (Sejg); for inhibition at 1120 g/ha: 1.12 kg/ha. The procedure, abridged:
as §2

In assay [16] the test system is Annual bluegrass. Description: Post-emergence herbicide test. The note with it: read-out: % plant inhibition (Anbg); for inhibition at 1120 g/ha: 1.12 kg/ha. In short, it runs like this: as §2
In assay [17] the test system is Cocklebur. Description: Post-emergence herbicide test. Conditions: Xanthium strumarium, read-out: % plant inhibition (Cobu); for inhibition at 1120 g/ha: 1.12 kg/ha. The procedure, abridged:
as §2

The test system of assay [18] is Morningglory. Description: Post-emergence herbicide test. The note with it: Ipomoea, read-out: % plant inhibition (Mogl); for inhibition at 1120 g/ha: 1.12 kg/ha. The procedure, abridged: as §2
The test system of assay [19] is Indian Mustard. Description: Post-emergence herbicide test. The note with it: Brassica juncea, read-out: % plant inhibition (Inmu); for inhibition at 1120 g/ha: 1.12 kg/ha. In short, it runs like this:
as §2

Assay [20] deals with Yellow nutsedge. Description: Post-emergence herbicide test. The note with it: Cyperus, read-out: % plant inhibition (Yens); for inhibition at 1120 g/ha: 1.12 kg/ha. In short, it runs like this: as §2

Structures are written as SMILES.

The inhibition is how much of the control response was suppressed.

For the molecule `COc1cc(-c2nn(C)c(C(F)(F)F)c2Cl)c(F)cc1Br` [Compound 94], the inhibition at 1120 g/ha with Velvetleaf [1], in the assay on Downy Brome [2], in the assay with Barnyardgrass [3], with Wild buckwheat [4], with Seedling johnsongrass [5] and in the assay with Annual bluegrass [6] was 100% each time. For the same molecule, the inhibition at 1120 g/ha with Cocklebur [7] is 60%; in the assay with Morningglory [8], 90%; in the assay with Indian Mustard [9], 100%; in the assay on Yellow nutsedge [10], 20%; in the assay on Velvetleaf [11], 100%; in the assay on Downy Brome [12], 100%. Moreover, the inhibition at 1120 g/ha in the assay with Barnyardgrass [13] was 100%; in the assay with Wild buckwheat [14], 100%; with Seedling johnsongrass [15], 90%; with Annual bluegrass [16], 90%; in the assay on Cocklebur [17] it was 80%; in the assay on Morningglory [18], 90%. The inhibition at 1120 g/ha with Indian Mustard [19] was 80%; with Yellow nutsedge [20], 10%.
Take `Cn1nc(-c2cc(O)c(Br)cc2F)c(Cl)c1C(F)(F)F` [Compound 95]: the inhibition at 1120 g/ha turned out to be 90% in the assay with Velvetleaf [1]; 20% with Downy Brome [2]; 50% in the assay with Barnyardgrass [3]; 100% in the assay with Wild buckwheat [4]; 50% in the assay with Seedling johnsongrass [5]; 30% in the assay on Annual bluegrass [6]. The inhibition at 1120 g/ha in the assay on Cocklebur [7] was 20%; with Morningglory [8] it was 40%; in the assay on Indian Mustard [9], 80%; in the assay with Yellow nutsedge [10], 20%; with Velvetleaf [11], 100%; with Downy Brome [12], 40%. Also, the inhibition at 1120 g/ha in the assay with Barnyardgrass [13] came to 80%; with Wild buckwheat [14], 100%; with Seedling johnsongrass [15], 50%; in the assay on Annual bluegrass [16], 60%; with Cocklebur [17] it was 100%; in the assay with Morningglory [18], 80%. Moreover, the inhibition at 1120 g/ha came to 70% in the assay on Indian Mustard [19] and 10% in the assay with Yellow nutsedge [20].
For the molecule `C#CCOc1cc(-c2nn(C)c(C(F)(F)F)c2Cl)c(F)cc1Br` [Compound 96], the inhibition at 1120 g/ha in the assay on Velvetleaf [1] turned out to be 100%; in the assay with Downy Brome [2], 100%; with Barnyardgrass [3], 80%; with Wild buckwheat [4] it was 100%; in the assay on Seedling johnsongrass [5] it was 90%; with Annual bluegrass [6], 100%. The inhibition at 1120 g/ha in the assay on Cocklebur [7] is 60%; in the assay with Morningglory [8], 100%; in the assay with Indian Mustard [9], 100%; in the assay on Yellow nutsedge [10], 20%; in the assay with Velvetleaf [11], 100%; with Downy Brome [12], 100%. For the same molecule, the inhibition at 1120 g/ha is 100% in the assay with Barnyardgrass [13]; 100% with Wild buckwheat [14]; 100% in the assay on Seedling johnsongrass [15]; 100% in the assay on Annual bluegrass [16]; 90% with Cocklebur [17]; 100% in the assay with Morningglory [18]. Further, the figures for the inhibition at 1120 g/ha in the assay with Indian Mustard [19] and in the assay on Yellow nutsedge [20] were 100% and 40%, respectively.
For `CCOC(=O)C(C)Oc1cc(-c2nn(C)c(C(F)(F)F)c2Cl)c(F)cc1Br` (centres unmarked) [Compound 97], the inhibition at 1120 g/ha in the assay on Velvetleaf [1] turned out to be 100%; in the assay with Downy Brome [2], 80%; in the assay with Barnyardgrass [3], 50%; in the assay with Wild buckwheat [4] it was 100%; in the assay on Seedling johnsongrass [5], 50%; in the assay on Annual bluegrass [6], 80%. Also, the inhibition at 1120 g/ha with Cocklebur [7] was 90%; with Morningglory [8], 40%; in the assay on Indian Mustard [9], 90%; with Yellow nutsedge [10] it was 20%; in the assay on Velvetleaf [11], 100%; in the assay with Downy Brome [12], 90%. Further, the inhibition at 1120 g/ha in the assay on Barnyardgrass [13] stood at 100%; with Wild buckwheat [14], 100%; in the assay on Seedling johnsongrass [15], 60%; in the assay with Annual bluegrass [16] it was 70%; with Cocklebur [17], 100%; with Morningglory [18] it was 90%. For the same molecule, the inhibition at 1120 g/ha in the assay with Indian Mustard [19] was 100%; with Yellow nutsedge [20], 50%.
With `Cn1nc(-c2cc(C3=NCCO3)c(Cl)cc2F)c(Cl)c1C(F)(F)F` [Compound 98], the inhibition at 1120 g/ha amounted to 90% in the assay with Velvetleaf [1]; 60% in the assay with Downy Brome [2]; 30% with Barnyardgrass [3]; 60% in the assay on Wild buckwheat [4]; 70% in the assay on Seedling johnsongrass [5]; 0% in the assay with Annual bluegrass [6]. Moreover, the inhibition at 1120 g/ha in the assay with Cocklebur [7] came out at 20%; in the assay on Morningglory [8], 80%; in the assay on Indian Mustard [9] it was 70%; in the assay with Yellow nutsedge [10], 0%; in the assay with Velvetleaf [11], 100%; with Downy Brome [12] it was 90%. Further, the inhibition at 1120 g/ha with Barnyardgrass [13] was determined as 80%; in the assay with Wild buckwheat [14], 50%; with Seedling johnsongrass [15], 90%; with Annual bluegrass [16] it was 70%; with Cocklebur [17], 100%; in the assay on Morningglory [18] it was 100%. Besides, the results for the inhibition at 1120 g/ha with Indian Mustard [19] and in the assay with Yellow nutsedge [20] were 80% and 0%, respectively.
As for `Cn1nc(-c2cc(N3CCOCC3)c(Cl)cc2F)c(Cl)c1C(F)(F)F` [Compound 99], the inhibition at 11210 g/ha amounted to 100% in the assay on Velvetleaf [1] (11.21 kg/ha); 100% in the assay with Downy Brome [2] (11.21 kg/ha); 90% with Barnyardgrass [3] (11.21 kg/ha); 100% in the assay with Wild buckwheat [4] (11.21 kg/ha); 90% with Seedling johnsongrass [5] (11.21 kg/ha); 80% in the assay with Annual bluegrass [6] (11.21 kg/ha). In addition, the inhibition at 11210 g/ha was determined as 80% in the assay with Cocklebur [7] (11.21 kg/ha); 90% in the assay with Morningglory [8] (11.21 kg/ha); 100% with Indian Mustard [9] (11.21 kg/ha); 30% in the assay with Yellow nutsedge [10] (11.21 kg/ha); 100% with Velvetleaf [11] (11.21 kg/ha); 90% in the assay with Downy Brome [12] (11.21 kg/ha). Further, the inhibition at 11210 g/ha with Barnyardgrass [13] (11.21 kg/ha) came out at 100%; with Wild buckwheat [14] (11.21 kg/ha) it was 100%; in the assay with Seedling johnsongrass [15] (11.21 kg/ha) it was 100%; with Annual bluegrass [16] (11.21 kg/ha), 100%; in the assay with Cocklebur [17] (11.21 kg/ha), 90%; with Morningglory [18] (11.21 kg/ha), 100%. For the same molecule, the figures for the inhibition at 11210 g/ha in the assay with Indian Mustard [19] (11.21 kg/ha) and with Yellow nutsedge [20] (11.21 kg/ha) were 100% and 10%, respectively.
`Cn1nc(-c2cc(C3OCCO3)c(Cl)cc2F)c(Cl)c1C(F)(F)F` [Compound 100, 4-chloro-3-(4-chloro-5-(1,3-dioxolan-2-yl)-2-fluorophenyl)-1-methyl-5-(trifluoromethyl)-1H-pyrazole]: the inhibition at 1120 g/ha amounted to 100% in the assay with Velvetleaf [1]; 100% in the assay with Downy Brome [2]; 70% with Barnyardgrass [3]; 100% in the assay with Wild buckwheat [4]; 90% in the assay on Seedling johnsongrass [5]; 90% in the assay with Annual bluegrass [6]. Also, the inhibition at 1120 g/ha in the assay on Cocklebur [7] worked out at 20%; in the assay with Morningglory [8], 80%; with Indian Mustard [9] it was 100%; in the assay with Yellow nutsedge [10], 0%; in the assay with Velvetleaf [11], 100%; in the assay on Downy Brome [12], 100%. The inhibition at 1120 g/ha was 100% in the assay on Barnyardgrass [13]; 100% in the assay on Wild buckwheat [14]; 100% with Seedling johnsongrass [15]; 100% with Annual bluegrass [16]; 80% in the assay on Cocklebur [17]; 100% with Morningglory [18]. In addition, the inhibition at 1120 g/ha in the assay with Indian Mustard [19] is 80%; in the assay with Yellow nutsedge [20], 20%.

(Values after US5530126A, “Process for the preparation of substituted 6-(pyrazol-3yl)-1,4-benzoxazin-3-ones” (Monsanto Company, priority 1994, dated 1996).)
